Experimental data taken from ChEMBL document CHEMBL3507680, “University of Dundee, Gates Library screen for HepG2 cell viability”.

Assay: Human HepG2 cell viability assay in 384 well format
Type: toxicity, cell-based
Set-up: dose 125 nL, time 70.5 hour; concentration not given beside the values
Conditions: HepG2 cells, read-out: Inhibition

| SMILES | cytotoxicity at 70.5 h [%] |
| --- | --- |
| c1cnnc(N2CCCC2CNCc2cscn2)c1 (stereo unspecified) | -15 |
| Cc1ccsc1C(=O)N(C)Cc1ccncc1 | -7.89 |
| CCn1cc(NC(=O)NCC(c2ccc(OC)cc2)N(C)C)cn1 (stereo unspecified) | -5.2 |
| CC(C)(C)c1noc(CN2CCCCC2Cn2cncn2)n1 (stereo unspecified) | -0.0275 |
| CN(CC1COc2ccccc2O1)C(=O)CCn1cncn1 (stereo unspecified) | -9.47 |
| Cc1ccc(CN(C)C(=O)c2scnc2C)cc1 | -3.98 |
| Cc1ccccc1CNC(=O)Cn1nc(-c2ccc(F)cc2)oc1=O | -9.26 |
| COc1ccccc1CNC(=O)Cn1nc(-c2ccc(F)cc2)oc1=O | 10.9 |
| CN(CC1COc2ccccc2O1)C(=O)NCCCn1cccn1 (stereo unspecified) | -8.71 |
| CCn1cc(NC(=O)NCC(c2cccc(OC)c2)N(C)C)cn1 (stereo unspecified) | -8.98 |
| Cc1c(C(=O)NCc2ccnc(OCC(F)(F)F)c2)cnn1C | -4.98 |
| COc1cc(CNC(=O)c2c(C)noc2C)ccn1 | -4.45 |
| Cc1cc(C)n(-c2ccc(CNCc3ccc(F)cc3F)cn2)n1 | -11.6 |
| Cc1cccnc1NC(=O)N(CCO)Cc1ccsc1 | -4.42 |
| Cc1ccc(C(=O)N2CCC(Oc3ccc(C)c(C)c3)CC2)c(=O)[nH]1 | -2.32 |
| Cc1cnn(CC2CN(c3nnc(C)c(C)c3C#N)CCO2)c1 (stereo unspecified) | -3.86 |
| COc1cccc(CCC(=O)N2CCN(CC(C)(C)O)CC2)c1 | 10.1 |
| CC(C)(O)CN1CCN(C(=O)COCc2ccccc2Cl)CC1 | -0.918 |
| COCCN1CCN(Cc2csc(-c3cnn(C)c3)n2)CC1 | -7.26 |
| CC(C)c1nnc2n1CCN(CCC(=O)N1CCc3ccccc31)C2 | -5.29 |
| Cc1cn2c(n1)CCC(NC(=O)c1ccc(S(C)(=O)=O)o1)C2 (stereo unspecified) | 6.89 |
| CCOCCN1CCN(Cc2csc(-c3cnn(C)c3)n2)CC1 | -13.2 |

| SMILES | cytotoxicity at 70.5 h [%] |
| --- | --- |
| CS(=O)(=O)Cc1ccc(C(=O)NC2CCc3nccn3C2)o1 (stereo unspecified) | -6.33 |
| Cc1noc(C)c1CC(=O)NCc1ccnc(OCC(F)(F)F)c1 | -7.45 |
| COc1cc(CNCc2ccc(-n3nc(C)cc3C)nc2)cc(OC)c1 | -5.72 |
| CN(C)C1CCN(C(=O)Cc2csc(-c3ncccn3)n2)CC1 | 0.448 |
| CC(NC(=O)CCCc1nc(C(C)(C)C)no1)c1ccccn1 (stereo unspecified) | 10.9 |
| CN(C)c1ccc(C(=O)Nc2cn[nH]c2)cc1 | -2.5 |
| COCC(=O)NC(C)c1cccc(Br)c1 (stereo unspecified) | -2.66 |
| Cc1ccc(C(=O)Nc2cn[nH]c2)cc1 | -6.42 |
| CN(Cc1ccco1)C(=O)NC1CCCN(c2ncccn2)C1 (stereo unspecified) | 8.71 |
| Cc1noc(CCCC(=O)NC(C)c2ccc(Cl)s2)n1 (stereo unspecified) | -7.88 |
| Cc1cc(CN2CCN(C(=O)NC(C)Cn3cccn3)CC2)no1 (stereo unspecified) | -9.58 |
| Cc1cc(CN(C)C(=O)NC2CCN(c3ncccn3)CC2)no1 | -0.403 |
| O=C(NCCCn1cncn1)N1CCCCCC1 | 1.12 |
| CCN(Cc1ccc2c(c1)OCCO2)C(=O)c1ccc(C)[nH]c1=O | -1.79 |
| CCOc1ccc(CN(CC)C(=O)c2ccc(C)[nH]c2=O)cc1OC | -0.243 |
| CC(=O)N1CCCN(C(=O)NCCCn2cncn2)CC1 | -0.358 |
| CN1CCCC1CNC(=O)CCCOc1cccc(Br)c1 (stereo unspecified) | 17.7 |
| O=C(NCCCn1cncn1)N1CCC(N2CCCCC2)CC1 | -2.83 |
| O=C(CCc1ccncc1)N1CCCC(n2cccn2)C1 (stereo unspecified) | -1.5 |
| O=C(CCCc1ccccn1)N1CCCC(n2cccn2)C1 (stereo unspecified) | -3.36 |
| O=C(CCc1ccco1)N1CCCC(n2cccn2)C1 (stereo unspecified) | -0.72 |
| COc1ccc(C(=O)Nc2cnn(CCN3CCOCC3)c2)c(O)c1 | 0.79 |

| SMILES | cytotoxicity at 70.5 h [%] |
| --- | --- |
| CC(=O)N1CCCCCC1C1CCN(c2ncccc2C#N)CC1 (stereo unspecified) | -1.45 |
| Cc1cnn(CCNCc2csc(-c3ccco3)n2)c1 | 18 |
| Cc1cnn(CCNCc2csc(-c3ncccn3)n2)c1 | 18.5 |
| CCNc1cc2c(nn1)CCN(C(=O)c1ccnc(-n3ccnc3)c1)C2 | -6.16 |
| CCOCC(O)CN1CCN(C(=O)c2ccc(C)nc2)CC1 (stereo unspecified) | 0.688 |
| COCC(c1cccc(C(F)(F)F)c1)N(C)C(=O)c1cnccn1 (stereo unspecified) | -9.11 |
| CC1CN(C(=O)c2ccn(-c3cccc(Cl)c3)n2)CCO1 (stereo unspecified) | -6.58 |
| CCc1nnc2n1CCN(C(=O)c1cc(Br)c[nH]1)C2 | -5.11 |
| c1csc(-c2nc(CNC3CCc4ncnn4C3)co2)c1 (stereo unspecified) | -10 |
| COc1cccc(S(=O)(=O)NC(=O)COc2c(C)cccc2C)c1 | -9.64 |
| CCc1nnc2n1CCN(C(=O)c1cc3cc(F)ccc3[nH]1)C2 | 0.76 |
| Cc1ccc(C(=O)Nc2cc(C(C)C)n[nH]2)cn1 | 31.4 |
| CCc1csc(C2CCCN(C(=O)c3ccc(OC)nn3)C2)n1 (stereo unspecified) | -9.56 |
| CCc1nc(C2CCCN2CC(=O)Nc2nncs2)no1 (stereo unspecified) | -2.48 |
| CC(C)c1cc(NC(=O)c2ccc(NC3CC3)nc2)[nH]n1 | -5.73 |
| CC1CN(C)CCN1C(=O)c1ccn(-c2cccc(Cl)c2)n1 (stereo unspecified) | -13.2 |
| CC(C)c1nc(C2CCCN2Cc2ccno2)no1 (stereo unspecified) | -12 |
| CC(C)c1nc(C2CCCN2Cc2ccccc2C#N)no1 (stereo unspecified) | 5.38 |
| Cc1nc(CN(C)C2CCCN(c3cccnn3)C2)no1 (stereo unspecified) | 17.1 |
| CCn1cc(CN2CCCN(C(=O)CCc3ccncc3)CC2)cn1 | 25.1 |
| COC(=O)CCc1c(C)nc2cc(O)nn2c1C | -2.64 |
| CC(C)C(Sc1nnnn1C1CC1)C(=O)NCc1cccnc1 (stereo unspecified) | -7.01 |

| SMILES | cytotoxicity at 70.5 h [%] |
| --- | --- |
| CCNC(=O)CCc1c(C)nc2cc(O)nn2c1C | -5 |
| Cc1cc(CNc2ccc(C(=O)N3CCCC(C)C3)cc2C)no1 (stereo unspecified) | -16.5 |
| COc1ccc(NC(=O)CCc2c(C)nc3cc(O)nn3c2C)cn1 | -2.2 |
| CCn1cnnc1C1CCN(C(=O)c2cccc3c2ccn3C)CC1 | 6.06 |
| CC(=O)N(C)c1nc(CN2CCCCC2Cn2cncn2)cs1 (stereo unspecified) | -6.38 |
| CCNC(=O)N(C)C(c1cccc(F)c1)c1ccccn1 (stereo unspecified) | -14 |
| Cc1cnn(C2CN(Cc3nc(-c4ccco4)no3)C2)c1 | -10.1 |
| Cc1oc(C(=O)O)cc1S(=O)(=O)Nc1ccc(Cl)c(F)c1 | -6.62 |
| CCOc1ccc(Cl)c(C(=O)N2CCN(CCO)CC2)n1 | -6.15 |
| CCn1cnnc1CNC(=O)N1CCN(c2nc(C)c(C)s2)CC1 | -3.66 |
| CCC(C)(C)NC(=O)CN(C)C(c1cccc(F)c1)c1ccccn1 (stereo unspecified) | 0.639 |
| Cc1cccc(-c2noc(CN3CC(n4cc(C)cn4)C3)n2)c1 | -5.31 |
| CC(C)C(Sc1nnc(C2CC2)n1C1CC1)C(=O)NCc1cccnc1 (stereo unspecified) | -8.64 |
| CN(Cc1ccsc1)C(=O)c1cccc(S(=O)(=O)NC(C)(C)C)c1 | -2.95 |
| COc1ccc(-c2nc(CN3CCN(CCO)CC3)co2)cc1 | 30.3 |
| C=C(C)COCCNC(=O)C1CCCN1C(C)=O (stereo unspecified) | -13.6 |
| CC(C)OCCCNC(=O)CS(=O)(=O)Cc1ccc(Cl)c(Cl)c1 | -9.73 |
| CC(C)(C)c1noc(CN2CCN(C(=O)c3cccs3)CC2)n1 | -12.1 |
| COc1ncccc1NC(=O)N(Cc1ccc(C)o1)C1CC1 | -9.49 |
| COc1cccc(CNC(C)Cn2cccn2)c1OC (stereo unspecified) | 2.73 |
